How the values were obtained:
Assay type in all cases: in vivo
transplanted rice = assay: Test Example 1: preemergent weed treatment in the submerged state, effect on crop; a: transplanted rice; settings: treatment dosage 252 g/ha
In short: (§1)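 Emulsion diluted with water to the specified per-hectare dosage is applied onto flood water (4 cm) over alluvial soil on the sowing day, with barnyard grass, bulrush and pondweed seeded and rice (2.5-leaf) transplanted; plants grow at 25–30 °C and are rated at 3 weeks.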

black-grass [1] = assay: Test Example 4: weedkilling efficacy by foliar treatment; H: black-grass; settings: treatment dosage 315 g/ha
In short: (§2)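 Seeds are spot-sown into sterilized diluvial soil and covered with about 1.5 cm of soil. After 14 days' greenhouse growth at 25 to 30° C, plants are sprayed on stems and leaves with diluted emulsion at the stated g/ha rate, then scored at 3 weeks.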

directly sown rice [2] = assay: Test Example 4: foliar treatment, effect on crop; b: directly sown rice; settings: treatment dosage 315 g/ha
In short: as §2

bulrush [3] = assay: Test Example 1: weedkilling efficacy, preemergent weed treatment in the submerged state; B: bulrush; settings: treatment dosage 252 g/ha
In short: as §1

corn [4] = assay: Test Example 4: foliar treatment, effect on crop; c: corn; settings: treatment dosage 315 g/ha
In short: as §2

catchweed [5] = assay: Test Example 3: weedkilling efficacy through soil treatment; O: catchweed; settings: treatment dosage 315 g/ha
Excerpt: Weedkilling Efficacy Test Through Soil Treatment
Sterilized diluvial soil was introduced into 21 cm long, 13 cm wide, 7 cm deep plastic boxes, and seeds of crabgrass, green foxtail, barnyard grass, wild oat, black-grass, Italian ryegrass, common wind-grass, Indian mallow, redroot pigweed, fig-leafed goosefoot, chickweed, catchweed, birds-eye speedwell, corn, soybean, rice, wheat, beet and rapeseed were each spot-sown, and covered with about 1.5 cm of soil. Next, emulsions of compounds of the present invention prepared according to compounding example 2 were diluted with water to give the specified dosages, and applied uniformly onto the soil surface with a small sprayer. The plants were grown by placing the plastic boxes in a greenhouse at 25 to 30° C., and 3 weeks after the pesticide treatment the effect on each type of plant was investigated on the basis of the assessment criteria of test example 1.
A: barnyard grass, B: bulrush, C: oval-leafed pondweed, D: crabgrass, E: green foxtail, F: barnyard grass, G: wild oat, H: black-grass, I: Italian ryegrass, J: common wind-grass, K: Indian mallow, L: redroot pigweed, M: fig-leafed goosefoot, N: chickweed, O: catchweed, p: birds-eye speedwell, a: transplanted rice, b: directly sown rice, c: corn, d: soybean, e: wheat, f: beet, g: rapeseed
Further, pesticide dosage (g/ha) indicates the concentration regulated such that treatment was with only the stated number of grams (g), when calculated per hectare (ha).

wheat [6] = assay: Test Example 3: soil treatment, effect on crop; e: wheat; settings: treatment dosage 315 g/ha
In short: (§3)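 Crop and weed responses were judged three weeks after a uniform surface spray of the water-diluted emulsion at the given g/ha rate. Seeds sat beneath about 1.5 cm of sterilized diluvial soil, and boxes stood in a greenhouse at 25 to 30° C.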

green foxtail [7] = assay: Test Example 4: weedkilling efficacy by foliar treatment; E: green foxtail; settings: treatment dosage 315 g/ha
In short: as §2

redroot pigweed [8] = assay: Test Example 4: weedkilling efficacy by foliar treatment; L: redroot pigweed; settings: treatment dosage 315 g/ha
In short: as §2

barnyard grass [9] = assay: Test Example 1: weedkilling efficacy, preemergent weed treatment in the submerged state; A: barnyard grass; settings: treatment dosage 252 g/ha
In short: as §1

barnyard grass [10] = assay: Test Example 2: weedkilling efficacy, growth period weed treatment in the submerged state; A: barnyard grass; settings: treatment dosage 252 g/ha
In short: (§4)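 First, alluvial soil in pots is flooded to 4 cm and mixed seed is sown. Next, plants grow in a greenhouse at 25 to 30° C until the 1-2 leaf stage. Then diluted emulsion is applied onto the water surface at the given g/ha rate, and injury is assessed after 3 weeks.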

crabgrass [11] = assay: Test Example 3: weedkilling efficacy through soil treatment; D: crabgrass; settings: treatment dosage 315 g/ha
In short: as §3

Italian ryegrass [12] = assay: Test Example 4: weedkilling efficacy by foliar treatment; I: Italian ryegrass; settings: treatment dosage 315 g/ha
In short: as §2

directly sown rice [13] = assay: Test Example 3: soil treatment, effect on crop; b: directly sown rice; settings: treatment dosage 315 g/ha
In short: as §3

soybean [14] = assay: Test Example 4: foliar treatment, effect on crop; d: soybean; settings: treatment dosage 315 g/ha
In short: as §2

catchweed [15] = assay: Test Example 4: weedkilling efficacy by foliar treatment; O: catchweed; settings: treatment dosage 315 g/ha
In short: as §2

wheat [16] = assay: Test Example 4: foliar treatment, effect on crop; e: wheat; settings: treatment dosage 315 g/ha
In short: as §2

fig-leafed goosefoot [17] = assay: Test Example 4: weedkilling efficacy by foliar treatment; M: fig-leafed goosefoot; settings: treatment dosage 315 g/ha
In short: as §2

green foxtail [18] = assay: Test Example 3: weedkilling efficacy through soil treatment; E: green foxtail; settings: treatment dosage 315 g/ha
In short: as §3

chickweed [19] = assay: Test Example 3: weedkilling efficacy through soil treatment; N: chickweed; settings: treatment dosage 315 g/ha
In short: as §3

black-grass [20] = assay: Test Example 3: weedkilling efficacy through soil treatment; H: black-grass; settings: treatment dosage 315 g/ha
In short: as §3

soybean [21] = assay: Test Example 3: soil treatment, effect on crop; d: soybean; settings: treatment dosage 315 g/ha
In short: as §3

crabgrass [22] = assay: Test Example 4: weedkilling efficacy by foliar treatment; D: crabgrass; settings: treatment dosage 315 g/ha
In short: as §2

fig-leafed goosefoot [23] = assay: Test Example 3: weedkilling efficacy through soil treatment; M: fig-leafed goosefoot; settings: treatment dosage 315 g/ha
In short: as §3

redroot pigweed [24] = assay: Test Example 3: weedkilling efficacy through soil treatment; L: redroot pigweed; settings: treatment dosage 315 g/ha
In short: as §3

beet [25] = assay: Test Example 4: foliar treatment, effect on crop; f: beet; settings: treatment dosage 315 g/ha
In short: as §2

birds-eye speedwell [26] = assay: Test Example 3: weedkilling efficacy through soil treatment; p: birds-eye speedwell; settings: treatment dosage 315 g/ha
In short: as §3

Indian mallow [27] = assay: Test Example 3: weedkilling efficacy through soil treatment; K: Indian mallow; settings: treatment dosage 315 g/ha
In short: as §3

birds-eye speedwell [28] = assay: Test Example 4: weedkilling efficacy by foliar treatment; p: birds-eye speedwell; settings: treatment dosage 315 g/ha
In short: as §2

beet [29] = assay: Test Example 3: soil treatment, effect on crop; f: beet; settings: treatment dosage 315 g/ha
In short: as §3

chickweed [30] = assay: Test Example 4: weedkilling efficacy by foliar treatment; N: chickweed; settings: treatment dosage 315 g/ha
In short: as §2

Indian mallow [31] = assay: Test Example 4: weedkilling efficacy by foliar treatment; K: Indian mallow; settings: treatment dosage 315 g/ha
In short: as §2

oval-leafed pondweed [32] = assay: Test Example 2: weedkilling efficacy, growth period weed treatment in the submerged state; C: oval-leafed pondweed; settings: treatment dosage 252 g/ha
In short: as §4

oval-leafed pondweed [33] = assay: Test Example 1: weedkilling efficacy, preemergent weed treatment in the submerged state; C: oval-leafed pondweed; settings: treatment dosage 252 g/ha
In short: as §1

Italian ryegrass [34] = assay: Test Example 3: weedkilling efficacy through soil treatment; I: Italian ryegrass; settings: treatment dosage 315 g/ha
In short: as §3

bulrush [35] = assay: Test Example 2: weedkilling efficacy, growth period weed treatment in the submerged state; B: bulrush; settings: treatment dosage 252 g/ha
In short: as §4

corn [36] = assay: Test Example 3: soil treatment, effect on crop; c: corn; settings: treatment dosage 315 g/ha
In short: as §3

wild oat = assay: Test Example 3: weedkilling efficacy through soil treatment; G: wild oat; settings: treatment dosage 315 g/ha
In short: as §3

Row | SMILES | a (transplanted rice) effect on crop grade (transplanted rice) | H (black-grass) weedkilling efficacy grade (black-grass [1]) | b (directly sown rice) effect on crop grade (directly sown rice [2]) | B (bulrush) weedkilling efficacy grade (bulrush [3]) | c (corn) effect on crop grade (corn [4]) | e (wheat) effect on crop grade (wheat [6]) | E (green foxtail) weedkilling efficacy grade (green foxtail [7]) | L (redroot pigweed) weedkilling efficacy grade (redroot pigweed [8]) | A (barnyard grass) weedkilling efficacy grade (barnyard grass [9]) | A (barnyard grass) weedkilling efficacy grade (barnyard grass [10]) | D (crabgrass) weedkilling efficacy grade (crabgrass [11]) | I (Italian ryegrass) weedkilling efficacy grade (Italian ryegrass [12]) | b (directly sown rice) effect on crop grade (directly sown rice [13]) | d (soybean) effect on crop grade (soybean [14]) | O (catchweed) weedkilling efficacy grade (catchweed [15]) | e (wheat) effect on crop grade (wheat [16]) | M (fig-leafed goosefoot) weedkilling efficacy grade (fig-leafed goosefoot [17]) | E (green foxtail) weedkilling efficacy grade (green foxtail [18]) | N (chickweed) weedkilling efficacy grade (chickweed [19]) | H (black-grass) weedkilling efficacy grade (black-grass [20]) | other results
1 | CC1=C(c2ccccc2)C(=O)N(C(C)(C)C(=O)Nc2nc(C)ns2)CO1 [B-1-13] | 0 (weed kill ratio 5% or less (practically no effect)) | 5 (weed kill ratio 90% or more, (practically complete withering)) | 5 (weed kill ratio 90% or more, (practically complete withering)) | 5 (weed kill ratio 90% or more, (practically complete withering)) | 2 (weed kill ratio 20% or more, less than 40%) | 5 (weed kill ratio 90% or more, (practically complete withering)) | 5 (weed kill ratio 90% or more, (practically complete withering)) | 5 (weed kill ratio 90% or more, (practically complete withering)) | 5 (weed kill ratio 90% or more, (practically complete withering)) | 5 (weed kill ratio 90% or more, (practically complete withering)) | 5 (weed kill ratio 90% or more, (practically complete withering)) | 5 (weed kill ratio 90% or more, (practically complete withering)) | 5 (weed kill ratio 90% or more, (practically complete withering)) | 5 (weed kill ratio 90% or more, (practically complete withering)) | 5 (weed kill ratio 90% or more, (practically complete withering)) | 4 (weed kill ratio 70% or more, less than 90%) | 4 (weed kill ratio 70% or more, less than 90%) | 5 (weed kill ratio 90% or more, (practically complete withering)) | 4 (weed kill ratio 70% or more, less than 90%) | 5 (weed kill ratio 90% or more, (practically complete withering)) | O (catchweed) weedkilling efficacy grade (catchweed [5]): 5 (weed kill ratio 90% or more, (practically complete withering)); d (soybean) effect on crop grade (soybean [21]): 4 (weed kill ratio 70% or more, less than 90%); D (crabgrass) weedkilling efficacy grade (crabgrass [22]): 5 (weed kill ratio 90% or more, (practically complete withering)); M (fig-leafed goosefoot) weedkilling efficacy grade (fig-leafed goosefoot [23]): 4 (weed kill ratio 70% or more, less than 90%); L (redroot pigweed) weedkilling efficacy grade (redroot pigweed [24]): 4 (weed kill ratio 70% or more, less than 90%); f (beet) effect on crop grade (beet [25]): 3 (weed kill ratio 40% or more, less than 70%); P (birds-eye speedwell) weedkilling efficacy grade (birds-eye speedwell [26]): 5 (weed kill ratio 90% or more, (practically complete withering)); K (Indian mallow) weedkilling efficacy grade (Indian mallow [27]): 2 (weed kill ratio 20% or more, less than 40%); P (birds-eye speedwell) weedkilling efficacy grade (birds-eye speedwell [28]): 4 (weed kill ratio 70% or more, less than 90%); f (beet) effect on crop grade (beet [29]): 5 (weed kill ratio 90% or more, (practically complete withering)); N (chickweed) weedkilling efficacy grade (chickweed [30]): 4 (weed kill ratio 70% or more, less than 90%); K (Indian mallow) weedkilling efficacy grade (Indian mallow [31]): 5 (weed kill ratio 90% or more, (practically complete withering)); C (oval-leafed pondweed) weedkilling efficacy grade (oval-leafed pondweed [32]): 5 (weed kill ratio 90% or more, (practically complete withering)); C (oval-leafed pondweed) weedkilling efficacy grade (oval-leafed pondweed [33]): 5 (weed kill ratio 90% or more, (practically complete withering)); I (Italian ryegrass) weedkilling efficacy grade (Italian ryegrass [34]): 5 (weed kill ratio 90% or more, (practically complete withering)); B (bulrush) weedkilling efficacy grade (bulrush [35]): 5 (weed kill ratio 90% or more, (practically complete withering)); c (corn) effect on crop grade (corn [36]): 3 (weed kill ratio 40% or more, less than 70%)
2 | CC1=C(c2ccsc2)C(=O)N(C(C)(C)C(=O)Nc2cccc(Br)n2)CO1 [B-2-06] | 4 (weed kill ratio 70% or more, less than 90%) | 5 (weed kill ratio 90% or more, (practically complete withering)) | 5 (weed kill ratio 90% or more, (practically complete withering)) | 5 (weed kill ratio 90% or more, (practically complete withering)) | 1 (weed kill ratio 5% or more, less than 20%) | 5 (weed kill ratio 90% or more, (practically complete withering)) | 5 (weed kill ratio 90% or more, (practically complete withering)) | 5 (weed kill ratio 90% or more, (practically complete withering)) | 5 (weed kill ratio 90% or more, (practically complete withering)) | 5 (weed kill ratio 90% or more, (practically complete withering)) | 5 (weed kill ratio 90% or more, (practically complete withering)) | 5 (weed kill ratio 90% or more, (practically complete withering)) | 5 (weed kill ratio 90% or more, (practically complete withering)) | 4 (weed kill ratio 70% or more, less than 90%) | 4 (weed kill ratio 70% or more, less than 90%) | 4 (weed kill ratio 70% or more, less than 90%) | 4 (weed kill ratio 70% or more, less than 90%) | 5 (weed kill ratio 90% or more, (practically complete withering)) | 4 (weed kill ratio 70% or more, less than 90%) | 5 (weed kill ratio 90% or more, (practically complete withering)) | d (soybean) effect on crop grade (soybean [21]): 2 (weed kill ratio 20% or more, less than 40%); D (crabgrass) weedkilling efficacy grade (crabgrass [22]): 5 (weed kill ratio 90% or more, (practically complete withering)); M (fig-leafed goosefoot) weedkilling efficacy grade (fig-leafed goosefoot [23]): 5 (weed kill ratio 90% or more, (practically complete withering)); L (redroot pigweed) weedkilling efficacy grade (redroot pigweed [24]): 5 (weed kill ratio 90% or more, (practically complete withering)); f (beet) effect on crop grade (beet [25]): 4 (weed kill ratio 70% or more, less than 90%); P (birds-eye speedwell) weedkilling efficacy grade (birds-eye speedwell [26]): 5 (weed kill ratio 90% or more, (practically complete withering)); K (Indian mallow) weedkilling efficacy grade (Indian mallow [27]): 4 (weed kill ratio 70% or more, less than 90%); P (birds-eye speedwell) weedkilling efficacy grade (birds-eye speedwell [28]): 5 (weed kill ratio 90% or more, (practically complete withering)); f (beet) effect on crop grade (beet [29]): 5 (weed kill ratio 90% or more, (practically complete withering)); N (chickweed) weedkilling efficacy grade (chickweed [30]): 4 (weed kill ratio 70% or more, less than 90%); K (Indian mallow) weedkilling efficacy grade (Indian mallow [31]): 3 (weed kill ratio 40% or more, less than 70%); C (oval-leafed pondweed) weedkilling efficacy grade (oval-leafed pondweed [32]): 5 (weed kill ratio 90% or more, (practically complete withering)); C (oval-leafed pondweed) weedkilling efficacy grade (oval-leafed pondweed [33]): 5 (weed kill ratio 90% or more, (practically complete withering)); I (Italian ryegrass) weedkilling efficacy grade (Italian ryegrass [34]): 5 (weed kill ratio 90% or more, (practically complete withering)); B (bulrush) weedkilling efficacy grade (bulrush [35]): 5 (weed kill ratio 90% or more, (practically complete withering)); c (corn) effect on crop grade (corn [36]): 0 (weed kill ratio 5% or less (practically no effect)); G (wild oat) weedkilling efficacy grade (wild oat): 5 (weed kill ratio 90% or more, (practically complete withering))
